These results are taken from patent US12233071B2, “Medicament for treating cough” (NIPPON CHEMIPHAR CO., LTD, priority 2018, dated 2025).

“Also recorded” adds a separate entry of the source.

Assay [1] has as its system citric acid (0.5 M)-induced cough. As to the kind of experiment: Citric acid-induced cough reflux in pretreatment guinea pigs, oral administration. The assay is classed as in vivo, Hartly strain guinea pigs. The conditions noted are these: guinea pigs; for inhibition of citric acid-induced cough (number of coughs): oral (compound A 1, 3, 10 mg/kg; compound B 1, 3, 10, 30 mg/kg); for inhibition of citric acid-induced cough (number of coughs) / dose at which a significant inhibitory action on citric acid-induced cough was exhibited: 0.5 M citric acid 1 h after administration; for dose at which a significant inhibitory action on citric acid-induced cough was exhibited: oral. From the text:
(§1) Cough reflux is induced by inhalation of (in the case of mice, 0.1 M or 0.25 M and in the case of guinea pigs, 0.25 M or 0.5 M) citric acid by mice or guinea pigs under non-anesthesia conditions. The citric acid is made aerosol by using an ultrasonic nebulizer (NE-U17: OMRON Corporation), and is inhaled while the air is supplied with an artificial respirator (SN-480-7: Shinano Seisakusho). The citric acid aerosol has an average particle size of from 1 to 8 μm, and the artificial respirator is used to supply the air at a one-time ventilation volume of 6 mL, a frequency of 30 times per min, and an inhalation period of 3 min.
The respiration and the cough reflux are measured in accordance with the body-plethysmograph method. The plethysmograph used includes: a plastic-made, cylindrical cylinder part in which the trunk of each mouse or guinea pig is housed; and a cap part that covers the head portion (any plastic-made cylinder is allowed as long as each experimental animal can be put in; in the case of the mouse, for instance, the part with a diameter of 4 cm and a length of 7 cm was used). An exhaust hole is created at an upper cylinder portion so as to be able to connect, via a silicon tube, to a respiratory flow meter (TP-602T: NIHON KOHDEN CORPORATION). To tightly seal the inside of the cylinder, a rubber or celluloid collar is attached to the neck of each animal, and the cap covering the whole head is used to fix them. The head-attached cap part has an exhaust port and an inhalation port created for inhalation of a cough-inducing substance. In addition, a screw-type lid is attached to a tail portion of the cylinder so as to move in or out each experimental animal. Each mouse is put in the cylinder, allowed to play for at least 30 min, adapted to an experimental environment, and then subjected to the experiment. The respiration is recorded in a PC (IdeaPad 300: Lenovo) for measurement by measuring, as a change in volume of the cylinder, the chest movement of each experimental animal in the cylinder by using a PowerLab (ML826 PowerLab 2/26: AD Instruments) via a respiratory flow meter. When a cough is induced, the chest of the experimental animal is moved vigorously, which causes an instantaneous large volume change in the cylinder. This change is recorded using the respiratory flow meter. This frequency is recorded to measure the number of coughs. The data is analyzed by LabChart version 8 (ADInstruments). In addition, immediately before inhalation of citric acid, the respiratory frequency per 15 sec is measured.
In this way, the effects were investigated.
At that time, Hartly strain guinea pigs were used as the guinea pigs, and 0.5 M citric acid was used as the citric acid.
In this way, the effects were investigated. Here, 0.5 M citric acid was used as the pretreated citric acid.

Assay [2] deals with citric acid (0.25 M)-induced cough. The assay is described as follows: Citric acid-induced cough in OVA-sensitized cough model guinea pigs, oral administration. The assay is classed as in vivo, Hartly strain guinea pigs. The conditions noted are these: oral 1 mg/kg 1 h before citric acid stimulation; for cough response increased due to airway inflammation: OVA-sensitized cough group guinea pigs. From the text:
When OVA, a foreign antigen, is inhaled, airway inflammation accompanied by eosinophil infiltration is induced. Consequently, OVA-sensitized guinea pigs present symptoms of allergic cough and atopic cough. Thus, the guinea pigs have been widely used as a pathological model (antigen-induced airway inflammation model animals) reflecting human clinical conditions. Here, in the Examples of the present application, whether a compound(s) of the present application elicited cough inhibitory action against the pathological model was evaluated.
The OVA-sensitized cough model guinea pigs were produced specifically by the following procedure.
Note that in the following procedure, Ovalbumin or mepyramine maleate is dissolved in saline and then used.
The number of citric acid-induced coughs is measured. Then, a mixture of 200 μL of 0.05% OVA (Ovalbumin) and 100 μL of Imject Alum (prepared by suspending aluminum hydroxide and magnesium hydroxide, each at a concentration of 40 mg/mL, in water and by adding an inactivating stabilizer thereto) per guinea pig is administered intraperitoneally (i.p.).
After the intraperitoneal administration, 0.5% OVA is given for 5 min by inhalation at days 7, 14, 21, and 28.
Note that at 30 min before the inhalation, mepyramine maleate (10 mg/kg) is given i.p. to prevent a shock symptom.
At Day 35, 0.5% ovalbumin is given for 60 min by inhalation. Note that at 30 min before the inhalation, mepyramine maleate (10 mg/kg) is given i.p. to prevent a shock symptom.
The next day of the final 0.5% ovalbumin challenge (day 35), the test is conducted.
OVA-sensitized cough model guinea pigs were used and stimulated with 0.25 M citric acid by the same procedure as of Example 9 to induce cough reflux. For guinea pigs used in this Example, Hartly strain guinea pigs were used for any of the below-described pretreatment guinea pigs, sham group guinea pigs, and OVA-sensitized cough group guinea pigs.
OVA-sensitized cough model guinea pigs were used and stimulated with 0.25 M citric acid by the same procedure as of Example 10 to induce cough reflux. For guinea pigs used in this Example, Hartly strain guinea pigs were used for any of the below-described pretreatment guinea pigs, sham group guinea pigs, and OVA-sensitized cough group guinea pigs.

Assay [3] relates to ACh-induced contraction of bronchial smooth muscle. As to the kind of experiment: Contraction of tracheobronchial smooth muscles excised from guinea pig (isometric tension, organ bath). On the procedure:
An animal was sacrificed by phlebotomy while the ventral aorta was dissected under urethane (2 g/kg, i.p.) anesthesia. Then, a left major bronchial tissue was excised. After a connective tissue and blood vessels were removed, each ring specimen with a width of about 3 mm was prepared and suspended in an organ bath. Then, the isometric tension was measured while the resting tension was set to 1.0 g. After the baseline tension was stabilized, whether each ring specimen was subject to an acetylcholine (ACh: 10^−3 M)-mediated contraction reaction was verified. Then, the following mater was investigated. […] Next, a tracheal or left major bronchial tissue was excised. After a connective tissue and blood vessels were removed, each ring specimen with a width of about 3 mm was prepared and suspended in an organ bath. Then, the isometric tension was measured while the resting tension was set to 1.0 g. After the baseline tension was stabilized, whether each ring specimen was subject to an acetylcholine (ACh: 10^−3 M)-mediated contraction reaction was verified. Then, the following mater was investigated. […] The specimen was likewise treated with just 0.1% DMSO.

Assay [4] deals with citric acid (0.25 M)-induced cough. The assay is described as follows: Citric acid-induced cough reflux in pretreatment mice, oral administration. The assay is classed as in vivo, ICR strain mice.
In assay [5] the test system is citric acid (0.1 M)-induced cough. As to the kind of experiment: Citric acid-induced cough in airway inflammation (LPS) model mice, oral administration. It counts as in vivo, ICR strain mice. The conditions noted are these: oral 0.3 mg/kg 1 h before 0.1 M citric acid stimulation. On the procedure:
Model mice with chronic cough caused by airway inflammation (referred to as “airway inflammation model mice”) were produced.
The airway inflammation model mice were produced while the mice were nasally instilled with lipopolysaccaride (LPS:1 μg/100 μL) daily for 3 days under diethyl ether inhalation anesthesia.
In addition, experiments for evaluating medicament efficacy on the airway inflammation model mice were conducted at 24 h after the final LPS administration.
Cough reflux is induced by inhalation of (in the case of mice, 0.1 M or 0.25 M and in the case of guinea pigs, 0.25 M or 0.5 M) citric acid by mice or guinea pigs under non-anesthesia conditions. […]
(§2) The respiration and the cough reflux are measured in accordance with the body-plethysmograph method. […] The respiration is recorded in a PC (IdeaPad 300: Lenovo) for measurement by measuring, as a change in volume of the cylinder, the chest movement of each experimental animal in the cylinder by using a PowerLab (ML826 PowerLab 2/26: AD Instruments) via a respiratory flow meter. […] This change is recorded using the respiratory flow meter. This frequency is recorded to measure the number of coughs. The data is analyzed by LabChart version 8 (ADInstruments). In addition, immediately before inhalation of citric acid, the respiratory frequency per 15 sec is measured. […]

The test system of assay [6] is citric acid (0.25 M)-induced cough. As to the kind of experiment: Citric acid-induced cough in mice, local application by inhalation using a nebulizer. It counts as in vivo, ICR strain mice. Particulars: inhalation of 10, 30 or 100 μg/mL by nebulizer, 0.25 M citric acid after 4 min.
From the text: as §1, §2

Take `O=C1CC(=O)N(c2ccc(NC(=O)c3ccccc3I)cc2)c2ccc3ccccc3c2N1` [compound B, 5-[4-(2-iodobenzoylamino)phenyl]-1H-naphtho[1,2-b][1,4]diazepin-2,4(3H,5H)-dione]: in assay [1] (oral 1 mg/kg, investigation of Example 10 (FIG. 10)), the “medicament efficacy on citric acid-induced cough at 1 mg/kg” value is recorded as “does not elicit any significant medicament efficacy”. Besides, in assay [1], the “inhibition of citric acid-induced cough (number of coughs)” value is listed as “inhibited citric acid-induced cough in a dose-dependent manner” and the “dose at which a significant inhibitory action on citric acid-induced cough was exhibited” value is listed as ≥ 1 mg/kg. Also, in assay [2], the “cough response increased due to airway inflammation” value is reported as “inhibited completely” and the “change in the number of coughs in sham group guinea pigs” value is recorded as “a change in the number of coughs was unobserved”. Also, the “effect on ACh-induced contraction of bronchial smooth muscle” value in assay [3] (10^−6 M in DMSO at final 0.1%, 10^−5 M ACh) is reported as “Neither 0.1% DMSO itself, which was a solvent, nor compound B (at 10^−6 M) affected the ACh-induced contraction of bronchial smooth muscle”.
Regarding `O=C1CC(=O)N(c2cccc(-c3nnn[nH]3)c2)c2ccc3ccccc3c2N1.[Na]` [compound A, 5-[3-(1H-tetrazol-5-yl)phenyl]-1H-naphtho[1,2-b][1,4]diazepin-2,4(3H,5H)-dione sodium salt], the “medicament efficacy on citric acid-induced cough at 0.3 mg/kg” value in assay [4] (oral 0.3 mg/kg, examination of Example 3) is “did not elicit any significant medicament efficacy”. In assay [4] (oral 10 mg/kg, 0.25 M citric acid 1 h after administration), the “cough inhibition rate, compound A versus the same dose of dihydrocodeine” value is reported as “comparable”. For the same molecule, the “inhibition of citric acid-induced cough (number of coughs)” value in assay [4] (oral 0.3, 1, 3 or 10 mg/kg, citric acid stimulation 1 h after administration) is listed as “inhibited citric acid-induced cough in a dose-dependent manner”; in assay [1], “inhibited citric acid-induced cough in a dose-dependent manner”. Also, the “dose at which a significant inhibitory action on citric acid-induced cough was exhibited” value in assay [4] (oral, citric acid stimulation 1 h after administration) is listed as ≥ 1 mg/kg; in assay [1], ≥ 1 mg/kg. For the same molecule, the “cough response increased due to airway inflammation” value in assay [5] (airway inflammation group mice) and in assay [2] was “inhibited completely” throughout. Besides, the “change in the number of coughs in sham group mice” value in assay [5] (sham group mice (saline instead of LPS), sodium salt, 0.3 mg/kg) was “a change in the number of coughs was unobserved; also recorded: did not elicit any significant medicament efficacy”. Besides, the “antitussive effect by local application” value in assay [6] was “elicited an antitussive effect, in a dose-dependent manner, more strongly and more rapidly using a lower dose than the case of oral administration”. Further, the “change in the number of coughs in sham group guinea pigs” value in assay [2] is “a change in the number of coughs was unobserved”. Further, the “effect on baseline tension of bronchial smooth muscle” value in assay [3] (10^−5 M, solvent water) is given as “did not affect”. Also, in assay [3] (10^−5 M, solvent water, about 50% contraction of the maximum contraction), the “effect on 10^−5 M Ach-induced contraction reaction of bronchial smooth muscle” value is reported as “did not affect”.
